Measurements taken from US8138168B1 (Takeda Pharmaceutical Company Limited, priority 2007, dated 2012).
pIC50: −log10 of the molar value.

Biological target: T1, Recombinant human renin (Homo sapiens, UniProt P00797)
T1 construct: isolate the active form (residues 67-406); made in house; host or cells: FreeStyle 293-F cells (transient expression of pcDNA3.1(+)/hREN)
T1 sequence (P00797 67-406): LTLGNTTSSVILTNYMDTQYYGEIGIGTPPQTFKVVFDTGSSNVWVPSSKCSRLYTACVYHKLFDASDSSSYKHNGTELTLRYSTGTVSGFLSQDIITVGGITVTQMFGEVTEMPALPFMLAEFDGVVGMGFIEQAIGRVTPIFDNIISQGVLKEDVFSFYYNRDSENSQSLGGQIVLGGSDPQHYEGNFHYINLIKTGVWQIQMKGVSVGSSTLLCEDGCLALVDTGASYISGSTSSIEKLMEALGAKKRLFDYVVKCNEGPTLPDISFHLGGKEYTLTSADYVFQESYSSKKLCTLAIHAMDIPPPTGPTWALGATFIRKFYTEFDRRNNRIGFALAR
Experiment: In vitro enzymatic activity assay of renin inhibitors (fluorogenic peptide substrate)
Format: biochemical
Settings: read-out: IC50 of Exemplified Compounds Against Renin
Procedure, shortened: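 Recombinant human renin (3 nM final) pre-incubated 10 min at 37 °C with compounds in pH 7.4 Hepes/EDTA/DTT/0.1 mg/mL BSA/Brij35 buffer (optionally plus 2% BSA), 5% DMSO final; fluorogenic QXL520/HiLyteFluo488 peptide substrate added.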

| Compound | pIC50 |
| --- | --- |
| CC(=O)NCCn1c([C@@H]2CCCN(C(=O)C[C@H](N)Cc3ccc(-c4cnc(N)nc4)cc3)C2)nc2ccccc21 [Compound 450, N-(2-(2-((R)-1-((R)-3-amino-4-(4-(2-aminopyrimidin-5-yl)phenyl)butanoyl)piperidin-3-yl)-1H-benzo[d]imidazol-1-yl)ethyl)acetamide] | 6.00 to 7.00 |
| COCCCn1c([C@@H]2CCCN(C(=O)C[C@H](N)Cc3ccc(-c4ccc(C(=O)NCC(O)CO)cc4)cc3)C2)nc2ccccc21 (stereo partly drawn) [Compound 181, 4′-((R)-2-amino-4-((R)-3-(1-(3-methoxypropyl)-1H-benzo[d]imidazol-2-yl)piperidin-1-yl)-4-oxobutyl)-N-(2,3-dihydroxypropyl)biphenyl-4-carboxamide] | > 7.00 |
| COCCCn1c([C@@H]2CCCN(C(=O)C[C@H](N)Cc3ccc(-c4csc(OC)n4)cc3)C2)nc2ccccc21 [Compound 201, (R)-3-amino-1-((R)-3-(1-(3-methoxypropyl)-1H-benzo[d]imidazol-2-yl)piperidin-1-yl)-4-(4-(2-methoxythiazol-4-yl)phenyl)butan-1-one] | > 7.00 |
| CCOc1nc(-c2ccc(C[C@@H](N)CC(=O)N3CCC[C@@H](c4nc5ccccc5n4CCCOC)C3)cc2)cs1 [Compound 200, (R)-3-amino-4-(4-(2-ethoxythiazol-4-yl)phenyl)-1-((R)-3-(1-(3-methoxypropyl)-1H-benzo[d]imidazol-2-yl)piperidin-1-yl)butan-1-one] | > 7.00 |
| CC(=O)NCCn1c([C@@H]2CCCN(C(=O)C[C@H](N)Cc3ccc(-c4ccc5c(c4)OCCN5C)cc3)C2)nc2c(C)cccc21 [Compound 475, N-(2-(2-((R)-1-((R)-3-amino-4-(4-(4-methyl-3,4-dihydro-2H-benzo[b][1,4]oxazin-7-yl)phenyl)butanoyl)piperidin-3-yl)-4-methyl-1H-benzo[d]imidazol-1-yl)ethyl)acetamide] | 6.00 to 7.00 |
| COCCCn1c([C@@H]2CCCN(C(=O)C[C@H](N)Cc3ccc(-c4ccc(N5CCNC5=O)cc4)cc3)C2)nc2c(F)cccc21 [Compound 441, 1-(4′-((R)-2-amino-4-((R)-3-(4-fluoro-1-(3-methoxypropyl)-1H-benzo[d]imidazol-2-yl)piperidin-l-yl)-4-oxobutyl)biphenyl-4-yl)imidazolidin-2-one] | > 7.00 |
| COCCCn1c([C@@H]2CCCN(C(=O)C[C@H](N)Cc3ccc(-c4ccc(N5CCOCC5)cc4)cc3)C2)nc2ccccc21 [Compound 128, (R)-3-amino-1-((R)-3-(1-(3-methoxypropyl)-1H-benzo[d]imidazol-2-yl)piperidin-1-yl)-4-(4′-morpholinobiphenyl-4-yl)butan-1-one] | > 7.00 |
| N[C@H](CCc1ccccc1)CC(=O)N1CCCC(c2nc3ccccc3[nH]2)C1 (stereo partly drawn) [Compound 32, (3R)-1-(3-(1H-benzo[d]imidazol-2-yl)piperidin-1-yl)-3-amino-5-phenylpentan-1-one] | < 6.00 |
| N[C@H](C(=O)N1CCCC(c2nc3ccccc3[nH]2)C1)C1CCCCC1 (stereo partly drawn) [Compound 61, (2S)-1-(3-(1H-benzo[d]imidazol-2-yl)piperidin-1-yl)-2-amino-2-cyclohexylethanone] | < 6.00 |
| CC(=O)NCCn1c([C@@H]2CCCN(C(=O)C[C@H](N)Cc3ccc(-c4ccc5c(c4)NC(=O)CO5)cc3)C2)nc2ccccc21 [Compound 469] | 6.00 to 7.00 |
| COCCCn1c([C@@H]2CCCN(C(=O)[C@@H]3CN(S(=O)(=O)c4ccc(OC)c(OC)c4)C[C@H]3N)C2)nc2ccccc21 [Compound 372, ((3R,4S)-4-amino-1-(3,4-dimethoxyphenylsulfonyl)pyrrolidin-3-yl)((R)-3-(1-(3-methoxypropyl)-1H-benzo[d]imidazol-2-yl)piperidin-1-yl)methanone] | 6.00 to 7.00 |
| COCCCn1c([C@@H]2CCCN(C(=O)C[C@H](N)CNC(=O)c3ccc(-c4ccccc4F)o3)C2)nc2ccccc21 [Compound 260, N-((S)-2-amino-4-((R)-3-(1-(3-methoxypropyl)-1H-benzo[d]imidazol-2-yl)piperidin-1-yl)-4-oxobutyl)-5-(2-fluorophenyl)furan-2-carboxamide] | > 7.00 |
| COCCCn1c([C@@H]2CCCN(C(=O)C[C@H](N)Cc3ccc4ccccc4c3)C2)nc2ccc([N+](=O)[O-])cc21 [Compound 114, (R)-3-amino-1-((R)-3-(1-(3-methoxypropyl)-6-nitro-1H-benzo[d]imidazol-2-yl)piperidin-1-yl)-4-(naphthalen-2-yl)butan-1-one] | < 6.00 |
| N[C@@H](CC(=O)N1CCCC(c2nc3ccccc3[nH]2)C1)c1ccc(Cl)cc1Cl (stereo partly drawn) [Compound 35, (3S)-1-(3-(1H-benzo[d]imidazol-2-yl)piperidin-1-yl)-3-amino-3-(2,4-dichlorophenyl)propan-1-one] | < 6.00 |
| COCCCn1c([C@@H]2CCCN(C(=O)C[C@H](N)Cc3ccc(-c4cnc(N)nc4)cc3)C2)nc2ccccc21 [Compound 154, (R)-3-amino-4-(4-(2-aminopyrimidin-5-yl)phenyl)-1-((R)-3-(1-(3-methoxypropyl)-1H-benzo[d]imidazol-2-yl)piperidin-1-yl)butan-1-one] | > 7.00 |
| COCCCn1c([C@@H]2CCCN(C(=O)C[C@H](N)CNS(=O)(=O)c3ccc(Cl)cc3)C2)nc2ccccc21 [Compound 281, N-((S)-2-amino-4-((R)-3-(1-(3-methoxypropyl)-1H-benzo[d]imidazol-2-yl)piperidin-1-yl)-4-oxobutyl)-4-chlorobenzenesulfonamide] | 6.00 to 7.00 |
| CC(=O)NCCn1c([C@@H]2CCCN(C(=O)C[C@H](N)Cc3ccc(-c4ccc(O)nc4)cc3)C2)nc2ccccc21 [Compound 445, N-(2-(2-((R)-1-((R)-3-amino-4-(4-(6-hydroxypyridin-3-yl)phenyl)butanoyl)piperidin-3-yl)-1H-benzo[d]imidazol-1-yl)ethyl)acetamide] | 6.00 to 7.00 |
| COCCCn1c([C@@H]2CCCN(C(=O)C[C@H](N)Cc3ccc(-c4ccc(OCC5CC5)nc4)cc3)C2)nc2ccccc21 [Compound 143, (R)-3-amino-4-(4-(6-(cyclopropylmethoxy)pyridin-3-yl)phenyl)-1-((R)-3-(1-(3-methoxypropyl)-1H-benzo[d]imidazol-2-yl)piperidin-1-yl)butan-1-one] | > 7.00 |
| COCCCn1c([C@@H]2CCCN(C(=O)C[C@H](N)Cc3ccc(-c4ccnc(O)c4)cc3)C2)nc2c(F)cccc21 [Compound 444, (R)-3-amino-1-((R)-3-(4-fluoro-1-(3-methoxypropyl)-1H-benzo[d]imidazol-2-yl)piperidin-1-yl)-4-(4-(2-hydroxypyridin-4-yl)phenyl)butan-1-one] | > 7.00 |
| CCOC(=O)CCNC(=O)N1CCCC(c2nc3ccccc3[nH]2)C1 (stereo not shown) [Compound 14, ethyl 3-(3-(1H-benzo[d]imidazol-2-yl)piperidine-1-carboxamido)propanoate] | < 6.00 |
| COCCCn1c([C@@H]2CCCN(C(=O)C[C@H](N)Cc3ccc(-c4ccc5c(c4)CC(=O)N5C)cc3)C2)nc2c(C)cccc21 [Compound 498, 5-(4-((R)-2-amino-4-((R)-3-(1-(3-methoxypropyl)-4-methyl-1H-benzo[d]imidazol-2-yl)piperidin-1-yl)-4-oxobutyl)phenyl)-1-methylindolin-2-one] | > 7.00 |
| COCCCn1c([C@@H]2CCCN(C(=O)C[C@H](N)CNC(=O)CC3CCCCC3)C2)nc2ccccc21 [Compound 319, N-((S)-2-amino-4-((R)-3-(1-(3-methoxypropyl)-1H-benzo[d]imidazol-2-yl)piperidin-1-yl)-4-oxobutyl)-2-cyclohexylacetamide] | 6.00 to 7.00 |
